The assay has as its system MV-4-11 cells. The assay can be described thus: Gene expression microarray analysis (Affymetrix PrimeView) and GSEA. Type of assay: cell-based, human. The following applies: MV-4-11 cells, 48 hours. Details: RFU PODN (11730768_x_at) / Fold change /veh PODN (11730768_x_at) / RFU LINC00158 (11744669_a_at) / Fold change /veh LINC00158 (11744669_a_at) / RFU DUSP10 (11751237_a_at) / Fold change /veh DUSP10 (11751237_a_at) / RFU ID3 (11757404_x_at) / Fold change /veh ID3 (11757404_x_at) / RFU PLEKHG5 (11737974_s_at) / Fold change /veh PLEKHG5 (11737974_s_at) / RFU LRRC4B (11730491_at) / Fold change /veh LRRC4B (11730491_at) / RFU GIMAP4 (11747438_a_at) / Fold change /veh GIMAP4 (11747438_a_at) / RFU KRT8 (11758183_x_at) / Fold change /veh KRT8 (11758183_x_at) / RFU CNN1 (11734310_a_at) / Fold change /veh CNN1 (11734310_a_at) / RFU VPS37D (11726825_at) / Fold change /veh VPS37D (11726825_at) / RFU C10orf10 (11716522_x_at) / Fold change /veh C10orf10 (11716522_x_at) / RFU KIR2DL2 /// KIR2DL4 /// KIR2DL5A /// KIR2DL5B /// KIR2DS1 /// KIR2DS2 /// KIR2DS3 /// KIR2DS4 /// KIR3DL3 /// KIR3DL3 /// KIR3DS1 (11738374_at) / Fold change /veh KIR2DL2 /// KIR2DL4 /// KIR2DL5A /// KIR2DL5B /// KIR2DS1 /// KIR2DS2 /// KIR2DS3 /// KIR2DS4 /// KIR3DL3 /// KIR3DL3 /// KIR3DS1 (11738374_at) / RFU C1QL1 (11718748_at) / Fold change /veh C1QL1 (11718748_at) / RFU TMPRSS4 (11747572_a_at) / Fold change /veh TMPRSS4 (11747572_a_at) / RFU HAMP (11756126_x_at) / Fold change /veh HAMP (11756126_x_at) / RFU RNFT2 (11725882_a_at) / Fold change /veh RNFT2 (11725882_a_at) / RFU NR4A2 (11747474_a_at) / Fold change /veh NR4A2 (11747474_a_at) / RFU ABCC12 (11746883_a_at) / Fold change /veh ABCC12 (11746883_a_at) / RFU TMEM136 (11760407_x_at) / Fold change /veh TMEM136 (11760407_x_at) / RFU CLDN22 /// WWC2 (11732394_at) / Fold change /veh CLDN22 /// WWC2 (11732394_at) / RFU HLA-DPB1 (11760878_x_at) / Fold change /veh HLA-DPB1 (11760878_x_at) / RFU SPINT1 (11716480_a_at) / Fold change /veh SPINT1 (11716480_a_at) / RFU GAP43 (11754022_s_at) / Fold change /veh GAP43 (11754022_s_at) / RFU A4GNT (11735810_at) / Fold change /veh A4GNT (11735810_at) / RFU PRB3 (11715151_x_at) / Fold change /veh PRB3 (11715151_x_at) / RFU TUBB4B (11761932_at) / Fold change /veh TUBB4B (11761932_at) / RFU CAPN14 (11732068_a_at) / Fold change /veh CAPN14 (11732068_a_at) / RFU TMCC2 (11721928_a_at) / Fold change /veh TMCC2 (11721928_a_at) / RFU IRGQ (11745062_a_at) / Fold change /veh IRGQ (11745062_a_at) / RFU FAM174B (11720279_a_at) / Fold change /veh FAM174B (11720279_a_at) / RFU TMPRSS4 (11748680_a_at) / Fold change /veh TMPRSS4 (11748680_a_at) / RFU FAM212B (11763350_a_at) / Fold change /veh FAM212B (11763350_a_at) / RFU PLEKHG5 (11743358_a_at) / Fold change /veh PLEKHG5 (11743358_a_at) / RFU ZSCAN30 (11745921_a_at) / Fold change /veh ZSCAN30 (11745921_a_at) / RFU CMKLR1 (11741424_a_at) / Fold change /veh CMKLR1 (11741424_a_at) / RFU LOC101060620 /// MAPK8IP1 (11723275_at) / Fold change /veh LOC101060620 /// MAPK8IP1 (11723275_at) / RFU SPTSSB (11747773_x_at) / Fold change /veh SPTSSB (11747773_x_at) / RFU PRSS12 (11739890_at) / Fold change /veh PRSS12 (11739890_at) / RFU BIN1 (11741810_x_at) / Fold change /veh BIN1 (11741810_x_at) / RFU WNT11 (11732464_a_at) / Fold change /veh WNT11 (11732464_a_at) / RFU C10orf10 (11716521_a_at) / Fold change /veh C10orf10 (11716521_a_at) / RFU C5orf56 (11738089_at) / Fold change /veh C5orf56 (11738089_at) / RFU CYB561 (11721691_x_at) / Fold change /veh CYB561 (11721691_x_at) / RFU ANKRD19P (11752326_a_at) / Fold change /veh ANKRD19P (11752326_a_at) / RFU OR2T12 /// OR2T33 /// OR2T8 (11738714_s_at) / Fold change /veh OR2T12 /// OR2T33 /// OR2T8 (11738714_s_at) / RFU VCAN (11748164_a_at) / Fold change /veh VCAN (11748164_a_at) / RFU JSRP1 (11732532_at) / Fold change /veh JSRP1 (11732532_at) / RFU KRTAP10-11 (11738290_x_at) / Fold change /veh KRTAP10-11 (11738290_x_at) / RFU MYO3A (11730013_a_at) / Fold change /veh MYO3A (11730013_a_at) / RFU EBF3 (11725865_a_at) / Fold change /veh EBF3 (11725865_a_at) / RFU CAMK2N1 (11719241_x_at) / Fold change /veh CAMK2N1 (11719241_x_at) / RFU C5orf56 (11738088_a_at) / Fold change /veh C5orf56 (11738088_a_at) / RFU OLFML3 (11715873_a_at) / Fold change /veh OLFML3 (11715873_a_at) / RFU LOC100653217 /// NTM (11731650_a_at) / Fold change /veh LOC100653217 /// NTM (11731650_a_at) / RFU MAPK11 (11762145_a_at) / Fold change /veh MAPK11 (11762145_a_at) / RFU FIZ1 (11724087_x_at) / Fold change /veh FIZ1 (11724087_x_at) / RFU OASL (11726364_x_at) / Fold change /veh OASL (11726364_x_at) / RFU SOX15 (11748057_x_at) / Fold change /veh SOX15 (11748057_x_at) / RFU CD79A (11719716_a_at) / Fold change /veh CD79A (11719716_a_at) / RFU HIST1H1D (11736915_at) / Fold change /veh HIST1H1D (11736915_at) / RFU CASKIN2 (11723855_a_at) / Fold change /veh CASKIN2 (11723855_a_at) / RFU LOC730098 (11760151_x_at) / Fold change /veh LOC730098 (11760151_x_at) / RFU OR4N2 (11742367_at) / Fold change /veh OR4N2 (11742367_at) / RFU PRRT2 (11749266_a_at) / Fold change /veh PRRT2 (11749266_a_at) / RFU SNX32 (11753110_a_at) / Fold change /veh SNX32 (11753110_a_at) / RFU CDHR5 (11726645_a_at) / Fold change /veh CDHR5 (11726645_a_at) / RFU RCAN1 (11760418_a_at) / Fold change /veh RCAN1 (11760418_a_at) / RFU FAM167A (11723789_a_at) / Fold change /veh FAM167A (11723789_a_at) / RFU FAM26E (11764081_at) / Fold change /veh FAM26E (11764081_at) / RFU ISYNA1 (11749810_s_at) / Fold change /veh ISYNA1 (11749810_s_at) / RFU ACY1 (11761880_at) / Fold change /veh ACY1 (11761880_at) / RFU 11764098_at / Fold change /veh 11764098_at / RFU SAMD14 (11745864_x_at) / Fold change /veh SAMD14 (11745864_x_at) / RFU NPB (11741838_a_at) / Fold change /veh NPB (11741838_a_at) / RFU TMPRSS6 (11731388_a_at) / Fold change /veh TMPRSS6 (11731388_a_at) / RFU KRTAP10-2 (11738614_at) / Fold change /veh KRTAP10-2 (11738614_at) / RFU ARHGAP8 /// PRR5-ARHGAP8 (11727945_x_at) / Fold change /veh ARHGAP8 /// PRR5-ARHGAP8 (11727945_x_at) / RFU KRTAP5-7 /// NADSYN1 (11734609_at) / Fold change /veh KRTAP5-7 /// NADSYN1 (11734609_at) / RFU RASL12 (11751679_a_at) / Fold change /veh RASL12 (11751679_a_at) / RFU CDKN2B (11736163_a_at) / Fold change /veh CDKN2B (11736163_a_at) / RFU PRF1 (11729649_at) / Fold change /veh PRF1 (11729649_at) / RFU, ZNF638 /// ZNF638-IT1 / Fold change vs veh, ZNF638 /// ZNF638-IT1 / RFU, PANK3 / Fold change vs veh, PANK3 / RFU, SH3YL1 / Fold change vs veh, SH3YL1 / RFU, ZEB2 / Fold change vs veh, ZEB2 / RFU, NRIP1 / Fold change vs veh, NRIP1 / RFU, PTTG1IP / Fold change vs veh, PTTG1IP / RFU, CAPN2 / Fold change vs veh, CAPN2 / RFU, MED14 / Fold change vs veh, MED14 / RFU, SNORA58 / Fold change vs veh, SNORA58 / RFU, C1orf63 / Fold change vs veh, C1orf63 / RFU, LRRFIP1 / Fold change vs veh, LRRFIP1 / RFU, NDUFAF7 / Fold change vs veh, NDUFAF7 / RFU, SLC12A2 / Fold change vs veh, SLC12A2 / RFU, IBTK / Fold change vs veh, IBTK / RFU, ESF1 / Fold change vs veh, ESF1 / Fold change vs veh, TMEM50B / RFU, TAOK1 / Fold change vs veh, TAOK1 / RFU, ACBD3 / Fold change vs veh, ACBD3 / RFU, TMA16 / Fold change vs veh, TMA16 / RFU, RWDD3 / Fold change vs veh, RWDD3 / RFU, BCAT1 / Fold change vs veh, BCAT1 / RFU, EDEM3 / Fold change vs veh, EDEM3 / RFU, TMEM33 / Fold change vs veh, TMEM33 / RFU, WDR75 / Fold change vs veh, WDR75 / RFU, AHCTF1 / Fold change vs veh, AHCTF1 / RFU, TFRC / Fold change vs veh, TFRC / RFU, ZDHHC17 / Fold change vs veh, ZDHHC17 / RFU, NOM1 / Fold change vs veh, NOM1 / RFU, ARL8B / Fold change vs veh, ARL8B / RFU, ZBTB11 / Fold change vs veh, ZBTB11 / RFU, TAMM41 / Fold change vs veh, TAMM41 / RFU, KIAA1704 /// LOC100996395 / Fold change vs veh, KIAA1704 /// LOC100996395 / RFU, ING1 / Fold change vs veh, ING1 / RFU, TRMT61B / Fold change vs veh, TRMT61B / RFU, FUBP3 / Fold change vs veh, FUBP3 / RFU, TP53 / Fold change vs veh, TP53 / RFU, TNKS2 / Fold change vs veh, TNKS2 / RFU, ZFP14 / Fold change vs veh, ZFP14 / RFU, ACTR2 / Fold change vs veh, ACTR2 / RFU, PPP3R1 / Fold change vs veh, PPP3R1 / RFU, PIK3R1 / Fold change vs veh, PIK3R1 / RFU, HNRNPA1 / Fold change vs veh, HNRNPA1 / RFU, RNF170 / Fold change vs veh, RNF170 / RFU, ZNF28 / Fold change vs veh, ZNF28 / RFU, RNGTT / Fold change vs veh, RNGTT / RFU, OGT / Fold change vs veh, OGT / RFU, BRD1 / Fold change vs veh, BRD1 / RFU, MARS / Fold change vs veh, MARS / RFU, ZNF655 / Fold change vs veh, ZNF655 / RFU, FAHD1 / Fold change vs veh, FAHD1 / RFU, BDP1 / Fold change vs veh, BDP1 / RFU, LRRCC1 / Fold change vs veh, LRRCC1 / RFU, ARID1A / Fold change vs veh, ARID1A / RFU, ZNF146 / Fold change vs veh, ZNF146 / RFU, ZNF330 / Fold change vs veh, ZNF330 / RFU, GPN3 / Fold change vs veh, GPN3 / RFU, C9orf123 / Fold change vs veh, C9orf123 / RFU, N4BP2L2 / Fold change vs veh, N4BP2L2 / RFU, ARFIP1 / Fold change vs veh, ARFIP1 / RFU, FAM179B / Fold change vs veh, FAM179B / RFU, BCL10 / Fold change vs veh, BCL10 / RFU, UHRF1BP1L / Fold change vs veh, UHRF1BP1L / RFU, BET1 / Fold change vs veh, BET1 / RFU, CNOT2 / Fold change vs veh, CNOT2 / RFU, ZNF268 / Fold change vs veh, ZNF268 / Fold change vs veh, ZNF507 / RFU, DGCR2 / Fold change vs veh, DGCR2 / RFU, WDSUB1 / Fold change vs veh, WDSUB1 / Fold change vs veh, HSP90B1 /// MIR3652 / RFU, ADSS / Fold change vs veh, ADSS / RFU, GK / Fold change vs veh, GK / RFU, ZNF148 / Fold change vs veh, ZNF148 / RFU, TAF9 / Fold change vs veh, TAF9 / RFU, SLC1A5 / Fold change vs veh, SLC1A5 / RFU, SLMO2 / Fold change vs veh, SLMO2 / RFU, ABCC4 / Fold change vs veh, ABCC4 / RFU, LOC101060439 /// RAP1B / Fold change vs veh, LOC101060439 /// RAP1B / RFU, RFX7 / Fold change vs veh, RFX7 / RFU, GTPBP10 / Fold change vs veh, GTPBP10 / RFU, CNEP1R1 / Fold change vs veh, CNEP1R1 / RFU, BIVM-ERCC5 /// ERCC5 / Fold change vs veh, BIVM-ERCC5 /// ERCC5 / RFU, ILF3 / Fold change vs veh, ILF3 / RFU 11762660_at / Fold change /veh 11762660_at / RFU VCAN (11757783_s_at) / Fold change /veh VCAN (11757783_s_at) / RFU DDX43 (11728927_at) / Fold change /veh DDX43 (11728927_at) / RFU KRT8 (11758188_x_at) / Fold change /veh KRT8 (11758188_x_at) / RFU NKD1 (11759106_at) / Fold change /veh NKD1 (11759106_at) / RFU SRD5A1 (11742802_a_at) / Fold change /veh SRD5A1 (11742802_a_at) / RFU TPSAB1 /// TPSB2 (11721975_s_at) / Fold change /veh TPSAB1 /// TPSB2 (11721975_s_at) / RFU GSTM3 (11746129_a_at) / Fold change /veh GSTM3 (11746129_a_at) / RFU IL23R (11737362_x_at) / Fold change /veh IL23R (11737362_x_at) / RFU TMEM51 (11727254_a_at) / Fold change /veh TMEM51 (11727254_a_at) / RFU PIWIL2 (11732686_x_at) / Fold change /veh PIWIL2 (11732686_x_at) / RFU ORM1 (11744905_x_at) / Fold change /veh ORM1 (11744905_x_at) / RFU CCDC152 (11743942_at) / Fold change /veh CCDC152 (11743942_at) / RFU ECM1 (11717891_a_at) / Fold change /veh ECM1 (11717891_a_at) / RFU IL23R (11748794_a_at) / Fold change /veh IL23R (11748794_a_at) / RFU TNFAIP8L3 (11732012_x_at) / Fold change /veh TNFAIP8L3 (11732012_x_at) / RFU MBOAT4 (11741988_at) / Fold change /veh MBOAT4 (11741988_at) / RFU 11764193_at / Fold change /veh 11764193_at / RFU TMEM53 (11763286_at) / Fold change /veh TMEM53 (11763286_at) / RFU MAGEB2 (11727129_at) / Fold change /veh MAGEB2 (11727129_at) / RFU TMEM200A (11744735_a_at) / Fold change /veh TMEM200A (11744735_a_at) / RFU CCDC152 (11751479_a_at) / Fold change /veh CCDC152 (11751479_a_at) / RFU FAM211A (11726209_a_at) / Fold change /veh FAM211A (11726209_a_at) / RFU RGS16 (11746705_a_at) / Fold change /veh RGS16 (11746705_a_at) / RFU VCAN (11755009_s_at) / Fold change /veh VCAN (11755009_s_at) / RFU RHOB (11743442_s_at) / Fold change /veh RHOB (11743442_s_at) / RFU RGS16 (11720943_a_at) / Fold change /veh RGS16 (11720943_a_at) / RFU RGS16 (11720944_at) / Fold change /veh RGS16 (11720944_at) / RFU, VPS4B / Fold change vs veh, VPS4B / RFU, CREB1 / Fold change vs veh, CREB1 / RFU, DNAJC13 / Fold change vs veh, DNAJC13 / RFU, GNAQ / Fold change vs veh, GNAQ / RFU, CDK5R1 / Fold change vs veh, CDK5R1 / RFU, ZRANB3 / Fold change vs veh, ZRANB3 / RFU, CUL4A / Fold change vs veh, CUL4A / RFU, CCNY / Fold change vs veh, CCNY / RFU, UFL1 / Fold change vs veh, UFL1 / RFU, COG3 / Fold change vs veh, COG3 / RFU, DIAPH2 / Fold change vs veh, DIAPH2 / RFU, SKA2 / Fold change vs veh, SKA2 / RFU, AFF3 / Fold change vs veh, AFF3 / RFU, LMF1 / Fold change vs veh, LMF1 / RFU, IPO11 / Fold change vs veh, IPO11 / RFU, DFFB / Fold change vs veh, DFFB / RFU, FOXP1 / Fold change vs veh, FOXP1 / RFU, CARD8 / Fold change vs veh, CARD8 / RFU, STRN3 / Fold change vs veh, STRN3 / RFU, ADK / Fold change vs veh, ADK / RFU, RASSF2 / Fold change vs veh, RASSF2 / RFU, WIPF1 / Fold change vs veh, WIPF1 / RFU, LARP1B / Fold change vs veh, LARP1B / RFU, RASA1 / Fold change vs veh, RASA1 / RFU, RB1 / Fold change vs veh, RB1 / RFU, PPFIA1 / Fold change vs veh, PPFIA1 / RFU, MAT2A / Fold change vs veh, MAT2A / RFU, CCT5 / Fold change vs veh, CCT5 / RFU, WDR92 / Fold change vs veh, WDR92 / RFU, CUX1 / Fold change vs veh, CUX1 / RFU, TTC7A / Fold change vs veh, TTC7A / RFU, TMEM135 / Fold change vs veh, TMEM135 / RFU, DEPTOR / Fold change vs veh, DEPTOR / RFU, CPM / Fold change vs veh, CPM / RFU, DNAJB6 / Fold change vs veh, DNAJB6 / RFU, CACNA2D3 / Fold change vs veh, CACNA2D3 / RFU, DTX4 / Fold change vs veh, DTX4 / RFU, TFCP2 / Fold change vs veh, TFCP2 / RFU, GMCL1 /// GMCL1P1 / Fold change vs veh, GMCL1 /// GMCL1P1 / RFU, AEBP2 / Fold change vs veh, AEBP2 / RFU, SNHG1 /// SNORD22 /// SNORD25 /// SNORD26 /// SNORD27 /// SNORD28 /// SNORD29 /// SNORD31 / Fold change vs veh, SNHG1 /// SNORD22 /// SNORD25 /// SNORD26 /// SNORD27 /// SNORD28 /// SNORD29 /// SNORD31 / Fold change (Aza/veh), C12orf56 (ProbeSet 11735607_a_at) / Fold change (ACY-1035/veh), C12orf56 (ProbeSet 11735607_a_at) / Fold change (Aza/veh), FGFR1OP (ProbeSet 11751329_s_at) / Fold change (ACY-1035/veh), FGFR1OP (ProbeSet 11751329_s_at) / Fold change (Aza/veh), VPS36 (ProbeSet 11739960_a_at) / Fold change (ACY-1035/veh), VPS36 (ProbeSet 11739960_a_at) / RFU SYPL1 (11715823_x_at) / Fold change /veh SYPL1 (11715823_x_at) / RFU IGFBP7 (11715501_s_at) / Fold change /veh IGFBP7 (11715501_s_at) / RFU REEP3 (11722064_at) / Fold change /veh REEP3 (11722064_at) / RFU IGLL1 (11728026_x_at) / Fold change /veh IGLL1 (11728026_x_at): dose or concentration left out as unconfirmed.

On to `Nc1ccc(-c2cccs2)cc1NC(=O)c1ccc2c(c1)cc(C1CC1)n2CCN1CCOCC1` [ACY-1035], for which the “Fold change /veh DDX43 (11728927_at)” value turned out to be 1.03.
